Measured values from patent publication US20250129102A1, “CRYSTAL FORM OF PYRIMIDINE HETEROCYCLIC COMPOUND AND PREPARATION METHOD THEREFOR” (D3 Bio (Wuxi) Co., Ltd., priority 2021, published 2025).

Columns and labels:
[1] = Metabolic stability in hepatocytes, CD-1 mice; assay type: in vitro ADME; settings: mouse, cryopreserved hepatocytes, CD-1 mice hepatocytes
Method: Metabolic stabilities of assay compound in hepatocytes of CD-1 mice, SD rats, beagle dogs, cynomolgus monkeys, and human were assayed, respectively.
Several 96-well sample precipitation plates were prepared and named T0, T15, T30, T60, T90, T120, T0-MC, T120-MC and blank substrates, respectively. The recovery medium and incubation medium were taken out in advance and placed in a 37° C. water bath for pre-heating. Cryopreserved hepatocytes were removed from the liquid nitrogen tank and immediately immersed in a 37° C. water bath (approximately 90 seconds). After the cryopreserved hepatocytes had thawed and loosened, they were poured into a centrifuge tube containing 40 mL of recovery medium, and the tube was gently inverted to allow the cells to be resuspended in the recovery medium. The cells were centrifuged at 100×g at room temperature for 5 min, and the supernatant was removed. The hepatocytes were resuspended in an appropriate volume of incubation medium, and the cell viability was calculated by Trypan Blue staining method. 198 μL of hepatocyte suspension (0.51×10^6 cells/mL) was added to the preheated incubation plate. For the culture medium control group, 198 μL of hepatocyte-free incubation medium was added to T0-MC and T120-MC incubation plate. All incubation plates were pre-incubated in a 37° C. incubator for 10 minutes. Then 2 μL of working solutions of the assay sample and the control compound were added, respectively, and the mixture was mixed well. The incubation plate was immediately put into the shaker in the incubator, and the reaction was initiated while starting the timer. For each time point of each compound, 2 duplicate samples were prepared. The incubation conditions were 37° C., saturated humidity, and 5% CO2. […] All samples were mixed well and analyzed by LC/MS/MS.

[2] = In vitro stability in liver microsomes, beagle dogs; assay type: in vitro ADME; settings: dog, 0.5 mg/mL
Method: (§1) Metabolic stabilities of the assay compound in liver microsomes of CD-1 mice, SD rats, beagle dogs, cynomolgus monkeys, and human were assayed, respectively.
(§2) Two 96-well incubation plates were prepared and named T60 incubation plate and NCF60 incubation plate, respectively. 445 μL of microsomal working solutions (liver microsomal protein concentration of 0.56 mg/mL) were added to the T60 incubation plate and the NCF60 incubation plate, respectively, and then the above incubation plates were pre-incubated in a 37° C. water bath for about 10 minutes.
(§3) After the pre-incubation, 5 μL of working solutions of the assay sample or the control compound were added to the T60 incubation plate and the NCF60 incubation plate, respectively, and the mixture was mixed well. 50 μL of potassium phosphate buffer was added to each well of the NCF60 incubation plate to initiate the reaction. 180 μL of stop solution (200 ng/mL tolbutamide and 200 ng/mL labetalol in acetonitrile) and 6 uL of NADPH regeneration system working solution were added to the T0 stop plate, and 54 μL of sample was transferred from T60 incubation plate to T0 stop plate (generation of T0 sample). The reaction was initiated by adding 44 μL of NADPH regeneration system working solution to each well of the T60 incubation plate. Only 54 μL of microsome working solution, 6 uL of NADPH regeneration system working solution and 180 μL of stop solution were added to the Blank plate. Therefore, in samples of the assay compound or the control compound, the final reaction concentration of compound, testosterone, diclofenac and propafenone was 1 μM, the concentration of liver microsomes was 0.5 mg/mL, and the final reaction concentrations of DMSO and acetonitrile in the reaction system were 0.01% (v/v) and 0.99% (v/v), respectively. […] All samples were injected and analyzed by liquid chromatography-tandem mass spectrometry.

[3] = Protein binding rate in plasma by equilibrium dialysis, cynomolgus monkeys; assay type: in vitro ADME; settings: 2 μM, equilibrium dialysis 4 hours
Method: Protein binding rate of the assay compound in plasma of CD-1 mice, SD rats, beagle dogs, cynomolgus monkeys and human was determined by equilibrium dialysis. Plasma samples with a compound concentration of 2 μM were prepared using plasma of the above five species, placed in a 96-well equilibrium dialysis device, and dialyzed with phosphate buffer solution at 37±1° C. for 4 hours. Warfarin was used as the control compound in this assay. The concentrations of the assay compound in plasma and dialysis buffer were determined by LC-MS/MS method.

[4] = In vitro stability in liver microsomes, cynomolgus monkeys; assay type: in vitro ADME; settings: cynomolgus monkey, 0.5 mg/mL
Method: as §1, §2, §3

[5] = tested on: KRAS^G12C-mutated H358 cells; assay: cells; settings: Homo sapiens, NCI-H358, 120 h, read-out: NCI-H358 IC50
Method: The main instrument used in this assay was a Nivo multi-label analyzer (PerkinElmer).
The assay was carried out in duplicate. 78 μL of medium was added to the intermediate plate, and then 2 μL of the serially diluted compound was transferred to each well of the intermediate plate according to the corresponding position. After mixing well, 20 μL per well was transferred to the cell plate. […] The cell plate was incubated in a carbon dioxide incubator for 5 days. Another cell plate was prepared, and the signal value of the cell plate was read on the day of compound addition as the maximum value (Max value in the equation below) to participate in data analysis. 25 μL of cell viability chemiluminescence detection reagent was added to each well of the cell plate, and the plate was incubated at room temperature for 10 minutes to stabilize the luminescence signal. A multi-label analyzer was used for reading the plate. • 3) 25 μL of cell viability chemiluminescence detection reagent was added to each well of the cell plate, and the plate was incubated at room temperature for 10 minutes to stabilize the luminescence signal. A multi-label analyzer was used for reading the plate.

C=C(F)C(=O)N1CCN(c2nc(OC[C@@]34CCCN3C[C@H](F)C4)nc3c2CO[C@H](c2c(F)c(N)cc(C)c2C(F)(F)F)C3)C[C@@H]1CC#N [Compound of formula (I)]
half-life at 1 μM [1]: 9.5 min
hepatocyte CLint at 1 μM ([1]; read-out: CLint(hep)): 146 µL/min/1e6 cells
CLint scaled at 1 μM ([1]; read-out: CLint(liver)): 1740 mL/min/kg
CLint scaled at 1 μM [2]: < 13.8 mL/min/kg
half-life at 1 μM [2]: > 145 min
microsomal CLint at 1 μM ([2]; read-out: CLint(hep)): < 9.6 µL/min/mg
Protein unbound rate (%) [3]: 7.8%
CLint scaled at 1 μM [4]: 303 mL/min/kg
half-life at 1 μM [4]: 6.2 min
microsomal CLint at 1 μM ([4]; read-out: CLint(hep)): 225 µL/min/mg
IC50 [5]: 0.6 nM
